# Patent publication US20240408099A1, “COMBINATION […] OF KRAS G12D INHIBITORS WITH Pan ErbB FAMILY INHIBITORS” (MIRATI THERAPEUTICS, INC., priority 2021, published 2024)
# Experiments:
# Format in all cases: in vivo, nude/nude mice
# [1] = tested on: AsPC-1 cells; test: AsPC-1 TGI 26 pancreatic cancer xenograft, tumor volumes; settings: for Average Tumor Volumes: 30 mg/kg IP BID daily
# Description: (§1) Immunocompromised nude/nude mice are inoculated in the right hind flank with cells harboring a KRas G12D mutation. When tumor volumes reach between 200-400 mm^3 in size, the mice are divided into four to five groups of 5 mice each. The first group is administered vehicle only. […] The fourth or last groups are administered the single agent dose of the KRas G12D inhibitor using the twice daily schedule and/or the 2 sequential days followed by 5 days off schedule in combination with the single agent dose of one of the EGFR inhibitors. […] Tumor volumes are measured using a caliper every two-three days and tumor volumes are calculated by the formula: […].
# Experimental Procedures. 20 nude/nude mice were inoculated with AsPC-1 cells in the right hind flank. When the tumors reached ˜200 mm^3 four treatment groups were established with five mice per group.
# [2] = tested on: Panc 02.03; test: Panc 02.03 TGI-43 pancreatic cancer xenograft (Table 5), tumor volumes; settings: for Average Tumor Volumes: 30 mg/kg BID 2x/week
# Description: as §1
# 20 to 30 nude/nude mice per study were inoculated in the right hind limb with 5×10^6 LS180 cells, AsPC-1 cells, GP2D cells, Panc 02.03 cells, SW1990 cells, or SNU-1033 cells. […]
# [3] = tested on: SW1990 cells; test: SW1990 TGI MDS #200407-807 pancreatic cancer xenograft, tumor volumes; settings: for Average Tumor Volumes: 30 mg/kg BID Daily
# Description: as §1
# (§2) 20 to 30 nude/nude mice per study were inoculated in the right hind limb with 5×10^6 LS180 cells, AsPC-1 cells, GP2D cells, Panc 02.03 cells, SW1990 cells, or SNU-1033 cells.
# Experimental Procedures. 30 nude/nude mice were inoculated with SW1990 cells in the right hind flank. When the tumors reached ˜300 mm^3 six treatment groups were established with five mice per group.
# [4] = tested on: AsPC-1 cells; test: AsPC-1 TGI-42 pancreatic cancer xenograft, tumor volumes
# Description: Immunocompromised nude/nude mice are inoculated in the right hind flank with cells harboring a KRas G12D mutation. When tumor volumes reach between 200-400 mm^3 in size, the mice are divided into four to five groups of 5 mice each. The first group is administered vehicle only. […] The fourth or last groups are administered the single agent dose of the KRas G12D inhibitor using the twice daily schedule and/or the 2 sequential days followed by 5 days off schedule in combination with the single agent dose of one of the EGFR inhibitors. The treatment period varies from cell line to cell line but typically is between 15-40 days. Tumor volumes are measured using a caliper every two-three days and tumor volumes are calculated by the formula: […].
# as §2
# Experimental Procedures. 30 nude/nude mice were inoculated with AsPC-1 cells in the right hind flank. When the tumors reached ˜300 mm^3 six treatment groups were established with five mice per group.
structure (smiles),measurement,setting,value
"C#Cc1c(F)ccc2cc(O)cc(-c3ncc4c(N5C[C@H]6CC[C@@H](C5)N6)nc(OC[C@@]56CCCN5C[C@H](F)C6)nc4c3F)c12 [MRTX1133, 4-(4-((1R,5S)-3,8-diazabicyclo[3.2.1]octan-3-yl)-8-fluoro-2-(((2R,7aS)-2-fluorohexahydro-1H-pyrrolizin-7a-yl)methoxy)pyrido[4,3-d]pyrimidin-7-yl)-5-ethynyl-6-fluoronaphthalen-2-ol]",Average Tumor Volumes,[1]; Study Day 0,197.468 mm^3
same,Average Tumor Volumes,[1]; Study Day 4,194.514 mm^3
same,Average Tumor Volumes,[1]; Study Day 7,175.198 mm^3
same,Average Tumor Volumes,[1]; Study Day 11,159.756 mm^3
same,Average Tumor Volumes,[1]; Study Day 14,172.986 mm^3
same,Average Tumor Volumes,[1]; Study Day 18,168.412 mm^3
same,Average Tumor Volumes,[1]; Study Day 21,143.928 mm^3
same,Average Tumor Volumes,[1]; Study Day 25,149.308 mm^3
same,tumor regression,"[1]; 30 mg/kg twice daily, single agent, Day 25",−24%
same,Average Tumor Volumes,[2]; Study Day 1,329.18 mm^3
same,Average Tumor Volumes,[2]; Study Day 4,265.246 mm^3
same,Average Tumor Volumes,[2]; Study Day 8,386.354 mm^3
same,Average Tumor Volumes,[2]; Study Day 11,392.042 mm^3
same,Average Tumor Volumes,[2]; Study Day 15,480.434 mm^3
same,Average Tumor Volumes,[2]; Study Day 18,496.496 mm^3
same,Average Tumor Volumes,[2]; Study Day 22,549.618 mm^3
same,tumor growth inhibition,"[2]; 30 mg/kg BID (twice per week), single agent, Day 22",72%
same,Average Tumor Volumes,[3]; Study Day 2,265.08 mm^3
same,Average Tumor Volumes,[3]; Study Day 6,194.42 mm^3
same,Average Tumor Volumes,[3]; Study Day 9,187.24 mm^3
same,Average Tumor Volumes,[3]; Study Day 13,241.84 mm^3
same,Average Tumor Volumes,[3]; Study Day 16,235.32 mm^3
same,Average Tumor Volumes,[3]; Study Day 20,214.98 mm^3
same,Average Tumor Volumes,[3]; Study Day 23,195.04 mm^3
same,Average Tumor Volumes,[3]; Study Day −1,362.82 mm^3
same,tumor regression,"[3]; 30 mg/kg BID daily, single agent, Day 23",−46%
same,Average Tumor Volumes,"[4]; 30 mg/kg BID 2x/week, Study Day 1",325.894 mm^3
same,Average Tumor Volumes,"[4]; 30 mg/kg BID 2x/week, Study Day 6",394.182 mm^3
same,Average Tumor Volumes,"[4]; 30 mg/kg BID 2x/week, Study Day 9",472.586 mm^3
same,Average Tumor Volumes,"[4]; 30 mg/kg BID 2x/week, Study Day 13",496.598 mm^3
same,Average Tumor Volumes,"[4]; 30 mg/kg BID 2x/week, Study Day 16",554.052 mm^3
same,Average Tumor Volumes,"[4]; 30 mg/kg BID 2x/week, Study Day 20",586.5625 mm^3
same,Average Tumor Volumes,"[4]; 30 mg/kg BID 2x/week, Study Day 23",640.49 mm^3
same,Average Tumor Volumes,"[4]; 30 mg/kg BID 2x/week, Study Day 27",679.96 mm^3
same,Average Tumor Volumes,"[4]; 30 mg/kg BID 2x/week, Study Day 30",795.11 mm^3
same,Average Tumor Volumes,"[4]; 30 mg/kg BID 2x/week, Study Day 34",862.74 mm^3
same,Average Tumor Volumes,"[4]; 30 mg/kg BID Daily, Study Day 1",323.454 mm^3
same,Average Tumor Volumes,"[4]; 30 mg/kg BID Daily, Study Day 6",356.398 mm^3
same,Average Tumor Volumes,"[4]; 30 mg/kg BID Daily, Study Day 9",374.684 mm^3
same,Average Tumor Volumes,"[4]; 30 mg/kg BID Daily, Study Day 13",316.51 mm^3
same,Average Tumor Volumes,"[4]; 30 mg/kg BID Daily, Study Day 16",291.71 mm^3
same,Average Tumor Volumes,"[4]; 30 mg/kg BID Daily, Study Day 20",269.246 mm^3
same,Average Tumor Volumes,"[4]; 30 mg/kg BID Daily, Study Day 23",213.334 mm^3
same,Average Tumor Volumes,"[4]; 30 mg/kg BID Daily, Study Day 27",195.354 mm^3
same,Average Tumor Volumes,"[4]; 30 mg/kg BID Daily, Study Day 30",216.072 mm^3
same,Average Tumor Volumes,"[4]; 30 mg/kg BID Daily, Study Day 34",266.324 mm^3
same,tumor regression,"[4]; 30 mg/kg BID daily, single agent, Day 34",−9%
